These results are taken from patent US5637609A, “2-phenylpyrrole derivatives as dopamine D3 receptor antagonists” (SmithKline Beecham plc, priority 1993, dated 1997).

In the assay the target is T1, human D3 dopamine receptors (Homo sapiens, UniProt P35462).
T1 construct: expressed in transfected cells; host or cells: CHO cells
Kind of assay: [125I] iodosulpride displacement binding to cloned human D3 dopamine receptors expressed in CHO cells. The conditions noted are these: displacement of 0.1 nM [125I] iodosulpride, CHO cell membranes, 30 min at 37° C.; read-out: IC50 values at the human D3 receptor. The procedure:
The inhibition constants (Ki) of test compounds for displacement of [^125 I] iodosulpride binding to human D2 and D3 dopamine receptors expressed in CHO cells have been determined. […] Cultures were grown as monolayers or in suspension in standard cell culture media. Cells were recovered by scraping (from monolayers) or by centrifugation (from suspension cultures), and were washed two or three times by suspension in phosphate buffered saline followed by collection by centrifugation. Cell pellets were stored frozen at -40° C. Crude cell membranes were prepared by homogenisation followed by high-speed centrifugation, and characterisation of cloned receptors achieved by radioligand binding.
Cell pellets were gently thawed at room temperature, and resuspended in about 20 volumes of ice-cold 50 mM Tris salts (pH 7.4@37° C.), 20 mM EDTA, 0.2M sucrose. The suspension was homogenised using an Ultra-Turrax at full speed for 15 sec. The homogenate was centrifuged at 18,000 r.p.m for 20 min at 4° C. in a Sorvall RC5C centrifuge. […] The final pellet was resuspended in 50 mM Tris salts (pH 7.4@37° C.), and the protein content determined using bovine serum albumin as a standard (Bradford, M. M. (1976) Anal. Biochem. 72, 248-254). […]
Competition curves were analysed simultaneously whenever possible using non-linear least-squares fitting procedures, capable of fitting one, two or three site models.

Structures can show the parent of a compound that is named as a salt. A value given as a limit tells only on which side of the number the result lay.

T1 sequence (P35462 whole entry): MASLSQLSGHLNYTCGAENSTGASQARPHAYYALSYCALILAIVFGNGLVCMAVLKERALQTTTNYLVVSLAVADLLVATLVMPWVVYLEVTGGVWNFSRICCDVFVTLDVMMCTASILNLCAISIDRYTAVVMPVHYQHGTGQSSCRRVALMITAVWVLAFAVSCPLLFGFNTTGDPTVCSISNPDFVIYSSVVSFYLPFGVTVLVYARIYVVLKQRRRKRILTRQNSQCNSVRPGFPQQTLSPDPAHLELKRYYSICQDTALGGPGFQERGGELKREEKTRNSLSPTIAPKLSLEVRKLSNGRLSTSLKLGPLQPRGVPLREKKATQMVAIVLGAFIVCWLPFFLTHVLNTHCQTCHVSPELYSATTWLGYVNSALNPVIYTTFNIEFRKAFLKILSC

The IC50 is the concentration needed to halve the response being measured. Consider `CCN(Cc1ccc(-c2cc(S(=O)(=O)CC)ccc2OC)[nH]1)C1CCCc2ccccc21` (centres unmarked) [Example 1, 2-(5-Ethylsulfonyl-2-methoxyphenyl)-5-[N-ethyl-N-1-(1,2,3,4-tetrahydronaphthyl)aminomethyl]-1H-pyrrole hydrochloride], for which the half-maximal inhibitory concentration (IC50) is below 5 nM.

On to `CCN(Cc1ccc(-c2cc(S(=O)(=O)CC)ccc2OC)[nH]1)C1CCc2ccccc21` (centres unmarked) [Example 2, 2-(5-Ethylsulfonyl-2-methoxyphenyl)-5-[N-ethyl-N-1-(indanyl)aminomethyl]-1H-pyrrole, hydrochloride], for which the IC50 was below 5 nM.
